The text below walks through data of US10898473B2, “Combinations to treat cancer” (EVOL SCIENCE LLC, priority 2016, dated 2021).

One assay deals with BxPC3M1 cells. Briefly: Colony formation assay. The class given is cell-based. How it is done: (§1) For colony formation assays, 400 cells per well were seeded into 24-well plates on day 0. Cells were treated with DMSO or gemcitabine at various doses on day 1 for 24 hours. Gemcitabine was washed out on day 2, vemurafenib, dabrafenib, and methotrexate was added. On day 4, drugs added on day 2 was washed out. Cells were allowed to grow for a subsequent 7 days before being fixed (10% methanol+10% acetic acid) and stained with crystal violet (0.4% in 20% ethanol) for quantitation as previously described (Bhattacharjee et al., 2014).

For a further assay, the system named is NCI-H2122 cells. Put plainly: Colony formation assay. The class given is cell-based. How it is done: as §1
Assay [1] deals with SK-MEL-28VR1 cells. Put plainly: Colony formation assay. The class given is cell-based. How it is done:
as §1

The test system of assay [2] is BxPC3M1, BxPC3, Panc1, and MiaPaca2. Put plainly: Cell proliferation assay. The class given is cell-based. As to conditions: vemurafenib 10 μM; all 4 cell lines (WT BRAF). The procedure:
FIGS. 9A-9H illustrate vemurafenib induced cell proliferation and serine synthesis in pancreatic cancer cell lines. FIG. 9A: Cell proliferation assay of BxPC3 cells treated with vemurafenib (10 μM). 100000 cells plated on day 0. FIG. 9B: Cell proliferation assay of BxPC3M1 cells treated with vemurafenib (10 μM). 100000 cells plated on day 0. FIG. 9C: Cell proliferation assay of Panc1 cells treated with vemurafenib (10 μM). 100000 cells plated on day 0. FIG. 9D: Cell proliferation assay of MiaPaca2 cells treated with vemurafenib (10 μM). 100000 cells plated on day 0. FIG. 9E: Mass spectrometry: PHGDH protein expression in pancreatic cancer cells treated with DMSO or vemurafenib (10 μM) (n=3). FIG. 9F: Mass spectrometry: PSAT1 protein expression in pancreatic cancer cells treated with DMSO or vemurafenib (10 μM) (n=3). FIG. 9G: Mass spectrometry: PSPH protein expression in pancreatic cancer cells treated with DMSO or vemurafenib (10 μM) (n=3). FIG. 9H: Mass spectrometry: SARS protein expression in pancreatic cancer cells treated with DMSO or vemurafenib (10 μM) (n=3).
Next, we tested the effect of vemurafenib treatment on pancreatic cancer cell proliferation. All 4 of the cell lines (BxPC3M1, BxPC3, Panc1, and MiaPaca2) tested express WT BRAF. […] As expected, PHGDH, PSAT1, PSPH, and SARS protein abundance increased in all 4 cell lines tested (FIGS. 9E, 9F, 9G, and 9H). […]

Assay [3] has the same test system. The class given is cell-based, Homo sapiens. As to conditions: vemurafenib 10 μM vs DMSO; all 4 cell lines.
Assay [4] has as its system PHGDH in SK-MEL-28VR1 cells. Briefly: Western blot of PHGDH protein expression. The note with it: following vemurafenib treatment; FIG. 5B. The class given is cell-based. The procedure: Cells were harvested, washed in PBS and lysed in NP40 lysis buffer (1% NP40/PBS/10% glycerol) with protease and phosphatase inhibitors. Protein concentrations were determined with Total-Protein-Assay-kit (ITSI Biosciences; K-0014-20) and then SDS sample buffer was added to the lysates. 50 ug of boiled lysates was separated by SDS-PAGE and then transferred onto Immobilon P membranes (Millipore; IPVH00010).
A general note: A western blot detects proteins with antibodies after separation by electrophoresis.

Assay [5] has as its system SK-MEL-28VR1 vs SK-MEL-28 cells. As to conditions: protein abundance with vemurafenib treatment, SK-MEL-28VR1 compared to parental SK-MEL-28.
Assay [6] has as its system SK-MEL-28VR1 cells. Briefly: Mass spectrometry protein abundance.
Experimental: (§2) 5 μL of sample were loaded onto a C18 trap column (PepMap100; 300-μm i.d.×5 mm, 5-μm particle size, 100 Å; Thermo Fisher Scientific) at a flow rate of 10 μL min^−1. […] The runs were analyzed using Progenesis-QI for Proteomics (Nonlinear dynamics). The chromatograms were aligned and the MS/MS data was extracted for peptide identification using Mascot (Matrix Science, London, UK; version 2.5.1). Mascot was set up to search the cRAP database, the custom database including the QMC peptide sequence and SwissProt database (selected for Homo sapiens) assuming the digestion enzyme trypsin. Mascot was searched with a fragment ion mass tolerance of 0.06 Da and a parent ion tolerance of 15 PPM. Deamidated of asparagine and glutamine, oxidation of methionine, acetyl of lysine, propionyl of lysine and carbamidomethylation of cysteine were specified in Mascot as variable modifications. The peptides identified using a FDR<1% were extracted and imported back into Progenesis for assignment of the peaks. Only proteins with at least 2 unique peptides and a Mascot score of 20 were used for further analysis. The peptide and protein quantification used a synthetic control peptide for normalization across the samples.
(§3) All proteomic trend plots were constructed using the Evol Science Software suite (ESSv1.0). […]
Assay [7] concerns SK-MEL-28 cells. Briefly: Mass spectrometry protein abundance.
Experimental: as §2, §3
Assay [8] concerns SK-MEL-28 cells. Briefly: Colony formation assay. The class given is cell-based. The procedure: as §1
In assay [9] the test system is pancreatic cancer patient-derived and ATCC established cell lines. Put plainly: 3D-spheroidal growth assay (CTG3D cell viability). The class given is cell-based. As to conditions: gemcitabine day 2, washed out, B-raf inhibitor day 3, viability day 5; FIG. 15. How it is done: FIG. 15 illustrates gemcitabine sensitized pancreatic cancer patient-derived and ATCC established cell lines to vemurafenib or dabrafenib in 3D-spheroidal growth assays: 20,000 cells plated (Corning 4515 spheroid plates) on day 0, Gemcitabine added on day 2 (all spheroids at least 500 μm in diameter), gemcitabine washed out and B-raf inhibit was added on day 3, CTG3D cell viability assays on day 5 (n=2).
ATCC established cell lines to vemurafenib or dabrafenib in 3D-spheroidal growth assays. 20,000 cells were plated to grow in a 3D-spheroidal growth assays. (Corning 4515 spheroid plates). Two days later when all spheroids were at least 500 μm in diameter, gemcitabine was added 2 days after plating. Gemcitabine was washed out the following day and the B-raf inhibitor was added on day 3 (3 days post-plating). CTG3D cell viability assays were performed 5-days post plating (i.e, on day 5, n=2). […] This was a surprising and unexpected effect that these cells could be killed with this combination.

As to `CCCS(=O)(=O)Nc1ccc(F)c(C(=O)c2c[nH]c3ncc(-c4ccc(Cl)cc4)cc23)c1F` [vemurafenib, Vemurafenib], the sensitization to gemcitabine entry in the assay on BxPC3M1 cells (variable gemcitabine doses + vemurafenib 1 μM, FIG. 8A) is “significantly sensitized”. The compound further yielded a cell death with BxPC3M1 cells (vemurafenib 5 μM, serine depleted media (not with complete media), FIG. 10C) above 50%. The sensitization to gemcitabine result in the assay on NCI-H2122 cells (vemurafenib 1 μM, FIG. 8C) is listed as “sensitized”. The same compound yielded a cell death with SK-MEL-28VR1 cells [1] (vemurafenib 2.5 μM and 5 μM, serine depletion (not with complete media), FIG. 6E) above 50%. Further, the cell proliferation result in assay [2] is listed as “increased proliferation”. For the same compound, the “PHGDH, PSAT1, PSPH, and SARS protein abundance” value in assay [3] is listed as “increased”. Besides, the PHGDH levels entry in assay [4] is given as “increased”. In [5], the “Fold differential, ASNS” value came out at 8 fold; the “Fold differential, CYP51A1” value is on record as 8 fold; the “Fold differential, DUS2” value worked out at 7 fold; the “Fold differential, FAM129B” value amounted to 9 fold. For the same compound, in assay [5], the “Fold differential, KRT19” value is on record as 5 fold; the “Fold differential, LARS2” value was found to be 6 fold; the “Fold differential, MPHOSPH6” value came out at 9 fold; the “Fold differential, MRPL13” value was 2 fold. Besides, in assay [5], the “Fold differential, PDLIM7” value amounted to 9 fold; the “Fold differential, PHGDH” value is 2 fold; the “Fold differential, PPP1R7” value came out at 8 fold; the “Fold differential, PSAT1” value was found to be 8 fold. In assay [5], the “Fold differential, PSPH” value was found to be 5 fold; the “Fold differential, RUVBL1” value amounted to 3 fold; the “Fold differential, S100A11” value is given as 8 fold; the “Fold differential, SARS” value is listed as 6 fold. In assay [5], the “Fold differential, SARS2” value was 4 fold; the “Fold differential, SBDS” value worked out at 10 fold; the “Fold differential, SPATA20” value is listed as 12 fold; the “Fold differential, TXNDC17” value is 2 fold. Also, the “PHGDH, PSAT1, PSPH, SARS and SARS2 abundance” value with SK-MEL-28VR1 cells [6] (cells exposed to vemurafenib vs vehicle, data not shown) is reported as “equal or higher abundances”. For the same compound, in the assay with SK-MEL-28VR1 cells [6] (vemurafenib treatment compared to vehicle treatment, FIG. 5A), the “Cytoplasmic FAM129B abundance increase” value is listed as around 6 fold. The FAM129B abundance entry in the assay with SK-MEL-28 cells [7] (in response to vemurafenib treatments, parental cells) was “decreased”. Further, the “PHGDH, PSAT1, PSPH, SARS and SARS2 abundance” value in the assay with SK-MEL-28 cells [7] (parental cells exposed to vemurafenib vs vehicle, data not shown) is “opposite trend”.

In the case of `CC(C)(C)c1nc(-c2cccc(NS(=O)(=O)c3c(F)cccc3F)c2F)c(-c2ccnc(N)n2)s1` [dabrafenib, Dabrafenib], the sensitization to gemcitabine entry is listed as “sensitized” in the assay with BxPC3M1 cells (dabrafenib 1 μM + variable doses of gemcitabine, FIG. 11A) and “sensitized” in the assay on NCI-H2122 cells (dabrafenib 1 μM + variable doses of gemcitabine, FIG. 11B).

For the compound `CN(Cc1cnc2nc(N)nc(N)c2n1)c1ccc(C(=O)N[C@@H](CCC(=O)O)C(=O)O)cc1` [methotrexate], the “cell death compared to gemcitabine+vemurafenib without methotrexate” value in the assay with BxPC3M1 cells (methotrexate (75 nM) + gemcitabine + vemurafenib (1 μM), FIG. 10A) is given as “increased cell death”; in the assay on NCI-H2122 cells (methotrexate (75 nM) + gemcitabine + vemurafenib (1 μM), FIG. 10B), “increased cell death”. In addition, the “killing by methotrexate/vemurafenib treatments” value in the assay with SK-MEL-28 cells [8] (methotrexate 75 nM + differential doses of vemurafenib, FIG. 6C) is listed as “no significant killing”. For the same compound, the “killing of cells following vemurafenib treatment” value in the assay on SK-MEL-28VR1 cells [1] (methotrexate 75 nM + differential doses of vemurafenib, FIG. 6D) is “significantly enhanced”. Besides, the “cell death alongside the gemcitabine/vemurafenib combination” value in the assay on SK-MEL-28VR1 cells [1] (methotrexate (75 nM) + gemcitabine (50 nM) + vemurafenib, FIG. 7F) was “significantly enhanced”.

Turning to `Nc1ccn([C@@H]2O[C@H](CO)[C@@H](O)C2(F)F)c(=O)n1` [gemcitabine], the “sensitization over single vemurafenib treatments” value with SK-MEL-28 cells [8] (gemcitabine 50 nM + variable doses of vemurafenib, FIG. 7A) is reported as “did not sensitize”. Moreover, in the assay with SK-MEL-28VR1 cells [1] (gemcitabine 50 nM + variable doses of vemurafenib, FIG. 7B), the sensitization to vemurafenib entry is “significantly sensitized”. The sensitization to dabrafenib result in the assay with SK-MEL-28VR1 cells [1] (gemcitabine 50 nm + variable doses of dabrafenib, FIG. 11C) is recorded as “sensitized”. Moreover, in assay [9], the “effect of gemcitabine pre-treatment followed by B-raf inhibitors on the cells” value is on record as “leads to cell death” and the “sensitization to vemurafenib or dabrafenib” value is “sensitized”.
